Like-named read-outs stand apart in the source and are kept apart here.
Legend:
[1] = molecular target: T1, α4β2-containing receptor subtype (Rattus norvegicus, UniProt P09483+P12390); assay: [3H]-NIC binding assay, rat striatal membranes; conditions: compared with NONI, NDNI, DHβE
T1 construct: Striata from two rats were dissected, pooled, and homogenized; from tissue; host or cells: rat striatal membranes
Protocol: Striata from two rats were dissected, pooled, and homogenized with a Tekmar polytron in 10 vol of ice-cold modified Krebs-HEPES buffer (20 mM HEPES, 118 mM NaCl, 4.8 mM KCl, 2.5 mM CaCl2, 1.2 mM MgSO4, adjusted to pH 7.5). The homogenates were incubated at 37° C. for 5 minutes and centrifuged at 15,000 g for 20 minutes. The pellet was resuspended in 10 volumes of ice-cold MilliQ water, incubated for 5 minutes at 37° C., and centrifuged at 15,000 g for 20 minutes. The second pellet was then resuspended in 10 volumes of fresh ice-cold 10% Krebs-HEPES buffer, incubated at 37° C., and centrifuged at 15,000 g for 20 minutes. The latter sequence of resuspension, incubation, and centrifugation was repeated. The pellet was frozen under fresh 10% Krebs-HEPES buffer and stored at −40° C. until assayed. Upon assay, the pellet was resuspended in the Krebs-HEPES buffer, incubated at 37° C. for 5 minutes, and centrifuged at 15,000 g for 20 minutes. The final pellet was resuspended in 3.6 ml ice-cold MilliQ water which provided for approximately 200 μg protein per 100 μl aliquot. Competition assays were performed in triplicate in a final volume of 200 μl Krebs-HEPES buffer containing […] Tris buffer (pH 7.5 at 4° C.). Reactions were initiated by addition of 100 μl of membrane suspension to […] [^3H]-NIC (50 μl). and one of at least nine concentrations of analog (50 μl). After a 90 minutes incubation at […], reactions were terminated by dilution of the samples with 3 ml of ice-cold Krebs-HEPES buffer followed immediately by filtration through Whatman GF/B. glass fiber filters (presoaked in 0.5% polyethyleneimine) using a Brandel Cell Harvester. Filters were rinsed three times with. 3 ml of ice-cold Krebs-HEPES buffer, transferred to scintillation vials, and 5 ml scintillation cocktail (Research Products International Corp., Mt. Prospect, Ill.) added. Nonspecific binding determined in triplicate was defined as binding in the presence of 10 μM NIC. Binding parameters were determined using the weighted, least squares regression.
The conformationally restricted nicotine analogs were evaluated for their ability to displace [^3H]-NIC binding from rat striatal membranes.

[2] = molecular target: T2, α7-type neuronal nicotinic acetylcholine receptors (Rattus norvegicus, UniProt Q05941); assay: [3H]-MLA binding assay, rat brain membranes; conditions: for remaining activity at 10 µM: compound 10 μM, 2.5 nM [3H]-MLA, whole brain binding relative to control
T2 construct: The brain tissue was homogenized with a Tekmar Polytron; from tissue; host or cells: male Sprague-Dawley rat brain membranes (whole brain without cortex, striatum and cerebellum)
T2 sequence (Q05941 23-502): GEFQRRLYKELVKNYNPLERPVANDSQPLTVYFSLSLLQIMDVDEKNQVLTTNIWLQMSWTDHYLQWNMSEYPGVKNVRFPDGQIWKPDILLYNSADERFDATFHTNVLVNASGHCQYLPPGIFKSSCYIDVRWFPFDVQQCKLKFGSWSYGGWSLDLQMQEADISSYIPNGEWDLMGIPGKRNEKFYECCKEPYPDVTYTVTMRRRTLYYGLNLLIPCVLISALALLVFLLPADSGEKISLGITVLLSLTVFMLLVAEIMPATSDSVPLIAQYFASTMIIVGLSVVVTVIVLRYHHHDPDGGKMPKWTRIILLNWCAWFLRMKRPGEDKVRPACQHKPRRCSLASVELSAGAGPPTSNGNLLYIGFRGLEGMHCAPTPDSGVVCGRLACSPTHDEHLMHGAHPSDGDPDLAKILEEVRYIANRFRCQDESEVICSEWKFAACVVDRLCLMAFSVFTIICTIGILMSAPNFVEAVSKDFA

[3] = molecular target: T1, α4β2-containing receptor subtype; assay: [3H]-NIC binding assay, rat striatal membranes; conditions: for Specific binding of [3H]-NIC in the presence of compound: 3 nM [3H]-NIC, mean ± S.E.M of 3 experiments

T1 sequence (P09483 31-630): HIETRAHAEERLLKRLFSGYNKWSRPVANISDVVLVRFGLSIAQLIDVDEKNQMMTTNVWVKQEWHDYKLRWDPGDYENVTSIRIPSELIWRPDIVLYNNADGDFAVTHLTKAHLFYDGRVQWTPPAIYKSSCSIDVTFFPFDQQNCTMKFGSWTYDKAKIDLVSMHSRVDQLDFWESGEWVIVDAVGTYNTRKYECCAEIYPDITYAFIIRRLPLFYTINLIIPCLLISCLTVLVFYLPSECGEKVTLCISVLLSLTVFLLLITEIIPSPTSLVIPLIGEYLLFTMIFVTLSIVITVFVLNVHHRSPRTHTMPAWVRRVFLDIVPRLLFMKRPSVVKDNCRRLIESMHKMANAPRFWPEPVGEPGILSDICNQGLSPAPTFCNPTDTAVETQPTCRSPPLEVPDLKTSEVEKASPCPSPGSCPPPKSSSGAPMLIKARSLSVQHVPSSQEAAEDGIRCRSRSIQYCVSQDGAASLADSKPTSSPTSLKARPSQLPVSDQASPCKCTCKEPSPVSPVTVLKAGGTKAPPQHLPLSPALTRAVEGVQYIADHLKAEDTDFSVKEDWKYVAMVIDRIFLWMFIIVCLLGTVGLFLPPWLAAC
T1 sequence (P12390 25-500): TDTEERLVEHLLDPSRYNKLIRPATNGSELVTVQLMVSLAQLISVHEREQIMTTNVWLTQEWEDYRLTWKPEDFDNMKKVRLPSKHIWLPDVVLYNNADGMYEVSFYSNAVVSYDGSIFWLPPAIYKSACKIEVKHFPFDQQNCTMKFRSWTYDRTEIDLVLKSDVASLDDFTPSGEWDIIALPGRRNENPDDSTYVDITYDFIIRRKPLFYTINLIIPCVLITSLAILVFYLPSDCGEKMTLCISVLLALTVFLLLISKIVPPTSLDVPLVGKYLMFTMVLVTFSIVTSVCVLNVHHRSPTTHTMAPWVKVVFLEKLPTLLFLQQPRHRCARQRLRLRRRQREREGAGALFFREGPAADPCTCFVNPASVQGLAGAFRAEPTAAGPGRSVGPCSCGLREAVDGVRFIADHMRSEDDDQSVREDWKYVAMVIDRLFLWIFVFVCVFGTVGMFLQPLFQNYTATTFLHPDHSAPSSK

Molecule | Affinity for the [3H]-NIC binding site (in words) [1] | remaining activity at 10 µM [2] [%] | Specific binding of [3H]-NIC in the presence of compound ([3]; compound 1 μM) | Specific binding of [3H]-NIC in the presence of compound ([3]; compound 10 μM) | Specific binding of [3H]-NIC in the presence of compound ([3]; compound 100 μM) | Affinity for the [3H]-NIC binding site (in words) [3] | Ki [2] [nM]
CCCCCCCCCC[n+]1cccc2c1CCC1CCN(C)C21 (stereo not shown) [BCD] | lost their ability to interact with this binding site | 96.2 | 54.9 ± 0.7 fmol/mg of protein | 54.4 ± 1.1 fmol/mg of protein | 47.9 ± 2.8 fmol/mg of protein | – | –
CCCCCCCCCC[n+]1cccc([C@@H]2CCCN2C)c1.[I-] [NDNI, reference compound] | – | – | – | – | – | high affinity | –
CCCCCCCCC[n+]1cccc2c1CCC1CCN(C)C21 (stereo not drawn) [BCN, cis-1-methyl-6-nonyl-2,3,3a,4,5,9b-hexahydro-1H-pyrrolo[2,3-f]isoquinolin-6-ium iodide] | – | 94 | 49.6 ± 1.2 fmol/mg of protein | 47.7 ± 2.1 fmol/mg of protein | 36.2 ± 0.3 fmol/mg of protein | – | –
CCCCCCCCCCC[n+]1cccc2c1CCC1CCN(C)C21 (stereo not shown) [BCU] | – | 92.3 | 56.1 ± 0.6 fmol/mg of protein | 53.9 ± 1.2 fmol/mg of protein | 37.3 ± 1.8 fmol/mg of protein | – | –
CCCCCCCC[n+]1ccc2c(c1)[C@@H]1[C@H](CC2)CCN1C.[I-] (relative stereo) [ACO, cis-1-methyl-8-octyl-2,3,3a,4,5,9b-hexahydro-1H-pyrrolo[3,2-h]isoquinolin-8-ium iodide] | much lower affinity for the [^3H]-NIC binding site compared to NONI | 91.5 | 44.5 ± 0.4 fmol/mg of protein | 42.2 ± 0.5 fmol/mg of protein | 30.2 ± 6.9 fmol/mg of protein | – | –
CCCCCCCCCC[n+]1ccc2c(c1)[C@@H]1[C@H](CC2)CCN1C.[I-] (relative stereo) [ACD, cis-8-decyl-1-methyl-2,3,3a,4,5,9b-hexahydro-1H-pyrrolo[3,2-h]isoquinolin-8-ium iodide] | lost their ability to interact with this binding site | 102 | 50.3 ± 3.7 fmol/mg of protein | 52.1 ± 2.6 fmol/mg of protein | 37.0 ± 1.7 fmol/mg of protein | – | –
CCCCCCCC[n+]1cccc2c1CCC1CCN(C)C21 (stereo not shown) [BCO] | much lower affinity for the [^3H]-NIC binding site compared to NONI | 93.6 | 50.5 ± 1.2 fmol/mg of protein | 39.7 ± 1.4 fmol/mg of protein | 13.5 ± 0.5 fmol/mg of protein | – | –
α-Bungarotoxin [reference compound] | – | – | – | – | – | – | 28.6 ± 5.4
CCCCCCCCC[n+]1ccc2c(c1)[C@@H]1[C@H](CC2)CCN1C.[I-] (relative stereo) [ACN, cis-1-methyl-8-nonyl-2,3,3a,4,5,9b-hexahydro-1H-pyrrolo[3,2-h]isoquinolin-8-ium iodide] | – | 101 | 49.8 ± 3.6 fmol/mg of protein | 48.9 ± 2.9 fmol/mg of protein | 30.2 ± 2.2 fmol/mg of protein | – | –
CCCCCCCCCCCC[n+]1ccc2c(c1)[C@@H]1[C@H](CC2)CCN1C.[I-] (relative stereo) [ACDD, cis-8-dodecyl-1-methyl-2,3,3a,4,5,9b-hexahydro-1H-pyrrolo[3,2-h]isoquinolin-8-ium iodide] | – | 102 | 49.5 ± 0.7 fmol/mg of protein | 49.8 ± 2.9 fmol/mg of protein | 44.5 ± 1.7 fmol/mg of protein | – | –
CCCCCCCCCCC[n+]1ccc2c(c1)[C@@H]1[C@H](CC2)CCN1C.[I-] (relative stereo) [ACU, cis-1-methyl-8-undecyl-2,3,3a,4,5,9b-hexahydro-1H-pyrrolo[3,2-h]isoquinolin-8-ium iodide] | – | 100 | 51.3 ± 2.0 fmol/mg of protein | 49.0 ± 0.3 fmol/mg of protein | 42.7 ± 2.1 fmol/mg of protein | – | –
CCCCCCCCCCCC[n+]1cccc2c1CCC1CCN(C)C21 (stereo not drawn) [BCDD, cis-6-dodecyl-1-methyl-2,3,3a,4,5,9b-hexahydro-1H-pyrrolo[2,3-f]isoquinolin-6-ium iodide] | – | 94.2 | 43.7 ± 4.5 fmol/mg of protein | 43.0 ± 4.7 fmol/mg of protein | 34.0 ± 2.1 fmol/mg of protein | – | –

Source: patent publication US6503922B2, “Bridged nicotine compounds for use in the treatment of CNS pathologies” (priority 2000, dated 2003)
